This is an account of results in patent US4737517A, “Coumarin derivatives, pharmaceutical compositions containing the same, and the use thereof in the treatment of cancer” (FIDIA, S.p.A., priority 1983, dated 1988).

Like-named read-outs stand apart in the source and are kept apart here.

For data set [1], the system named is platelet hyper-aggregation induced by ADP. Nature of the data set: Inhibition of ADP-induced platelet hyperaggregation in vitro (Born's method, aggregometer ELVI 840). The data set is classed as cell-based, New Zealand rabbits. Conditions: Oryctolagus cuniculus, 0.5 h, read-out: Inhibition of platelet hyper-aggregation induced by ADP. On the procedure:
Two separate centrifugations are effected (at 1000 rpm and at 6000 rpm), thus obtaining PRP ([…]) and PPP ([…]); the first is diluted with the second in order to obtain a platelet concentration of 300,000 per mm^3 (the count is effected in a Buerker apparatus). The compounds with a platelet antiaggregating activity of the present invention are added at the desired concentrations and incubated for 30 minutes at 37° C. with the aggregating agents. […] The various compounds represented by the numbers in the first column are identifiable by the numbers in the second column which refer to the examples described below in this specification.

Data set [2] has as its system coagulation. Nature of the data set: Thrombotest on capillary blood (anticoagulating effect). The data set is classed as in vivo, mice (C57B1/6J). Conditions: oral, controls 31.4 ± 1.7. The protocol:
In a separate experiment, the anticoagulating activity of the compounds is verified on the same strain of mice at the same doses used for antimetastatic activity evaluation.
The effect on coagulation is measured by a thrombotest on capillary blood taken from the retroorbital cavity (Owren, P. A. et al. Lancet ii, 754-758, 1959).
(§1) The anticoagulating effect measured by the "thrombotest", the antitumor effect measured by the decrease in weight of the primary tumor and the antimetastatic effect shown as the number of metasteses present in the lungs, are reported in Table 2. While the antitumor and antimetastatic effects of Warfarin and the two new products according to the present invention are roughly equal, the strong anticoagulating effect is absent in the two new products of the invention. This is a completely unexpected result.

The subject of data set [3] is 3 LL carcinoma cells (Lewis lung carcinoma). Nature of the data set: Antitumor and antimetastatic activity in mice implanted with 3 LL Lewis lung carcinoma. Conditions: oral; for antitumoral and antimetastatic activity (in words): in vivo on mice; for No. of metastases: lungs, controls 21.8 ± 4.9; for No. of metastases / Primary Tumor Weight: 25th day after transplant; for Primary Tumor Weight: controls 9087 ± 386. It counts as in vivo, male mice of the C57B1/6J strain. On the procedure:
This activity is to be seen for instance after administration of doses of between 0.2 mg/kg and 10 mg/kg by the oral route, as illustrated by the following experiments.
1×10^5 3 LL carcinoma cells (Lewis lung carcinoma) are implanted by intramuscular injection in the paws of male mice of the C57B1/6J strain, weighing about 20-22 g. This operation is effected as described in the literature (Poggi A. et al. Cancer Res. 37, 272-277, 1977). The growth of the tumor is observed until the 25th day after transplant. On this day the animals are sacrificed and the primary tumor and lungs are removed in order to evaluate the growth of the primary tumor and the number of metastases. Pharmacological treatment by the oral route begins 2 days before transplant of the tumor and continues until sacrifice. The substances are dissolved in tap water and are changed every 24 hours.
Table 2 reports the results obtained with the two coumarin derivatives 19 and 26, previously mentioned in comparison to Warfarin, the well-known […] and antimetastatic compound, which is also a coumarin derivative. Warfarin's antimetastatic activity is widely documented both experimentally (Zacharski, L. R. et al. Cancer 44, 732-741, 1979 and Poggi, A. et al. Lancet i 163-164, 1978) and clinically (Zacharski, L. R. et al. J. Am. Med. Assoc. 245, 831-835, 1981). […] This effect is measured by the number of metastases (Zacharski, L. R. et al. Cancer 44, 732-741, 1979 and Poggi, A. et al. Lancet i 163-164, 1978).
as §1

Data set [4] in a line: Acute toxicity in the rat, oral. Conditions: in vivo, aqueous solution, up to 14 days, Litchfield and Wilcoxon. The arrangement: species or system rat (Sprague Dawley). On the procedure:
Acute toxicity in the rat: groups of Sprague Dawley rats (male+female) are treated with graduated doses ranging from 0.125 g/kg of body weight to 10 g/kg of body weight of the above mentioned compounds in aqueous solution. The compounds are administered orally by intubation. Subsequent death may be immediate or may occur at any time up to 14 days after treatment.
The lethal dose 50 (LD50), that is, the dose which causes the death of 50% of the animals, is evaluated by the method of Litchfield and Wilcoxon (J. Pharmacol. Ex. Ther. 96, 99-113, 1949).

Data set [5] in a line: Acute toxicity in the mouse, oral. Conditions: in vivo, aqueous solution, up to 14 days, Litchfield and Wilcoxon. Further details: species or system mouse (Swiss). The protocol: Acute toxicity in the mouse: groups of Swiss mice (male+female) are treated with graduated doses ranging from 0.125 g/kg to 5 g/kg of body weight with compounds 19 to 26. The compounds are administered orally by intubation and dissolved in water.
Subsequent death may be immediate or may occur at any time up to 14 days after treatment. The lethal dose 50 (LD50), that is, the dose which causes the death of 50% of the animals, is evaluated by the method of Litchfield and Wilcoxon (J. Pharmacol. Exp. Ther. 96, 99-113, 1949).

In data set [6] the test system is 3 LL carcinoma cells (Lewis lung carcinoma). Particulars: number of metastases; mice of the C57B1/6J strain; cited from earlier work.
For data set [7], the system named is lung carcinoma. Conditions: cited from earlier work.
Setting [8] is: 1st adminis. 1.5 mg/kg, 2nd adminis. 0.3 mg/kg.
Where [9] appears, read: 1st adminis. 2.1 mg/kg, 2nd adminis. 0.5 mg/kg.

For the compound `C=CCc1c(O)c(CN(C)C)cc2c(C)cc(=O)oc12.Cl` [Compound 19, 4-methyl-6-dimethylaminomethyl-7-hydroxy-8-allylcumarin hydrochloride], in data set [1] (ADP 20 μg/ml, 100 γ/ml of active compound, rabbit PRP, incubated 30 minutes at 37° C), the inhibition – broadly, the drop in the measured response relative to a control, in per cent – at 100 µg/mL was 40%. The compound further had a Thrombotest in data set [2] (setting [8]) of 29.3 ± 1.7. In addition, the “antitumoral and antimetastatic activity (in words)” value in data set [3] is “antitumoral and antimetastatic activity”. Also, in data set [3] (setting [8]), the No. of metastases turned out to be 11.4 ± 3.3. Further, in data set [3] (setting [8]), the “Primary Tumor Weight” value was determined as 6731 ± 533 mg. For the same compound, the 50% lethal dose (LD50) (usually the dose expected to kill half of the subjects tested) at 336 h was found to be 2000 mg/kg in data set [4] and 1210 mg/kg in data set [5].

On to `C=CCc1c(O)c(CN2CCN(CCO)CC2)cc2c(C)cc(=O)oc12.ClOCl` [Compound 26, 4-methyl-6-[[4-(2-hydroxyethyl)-1-piperazinyl]methyl]-7-hydroxy-8-allylcumarin dichlorohydrate], for which, in data set [1], the inhibition at 100 µg/mL was found to be 23%. In data set [2] (setting [9]), the Thrombotest came out at 33.4 ± 1.2. Also, in data set [3], the “antitumoral and antimetastatic activity (in words)” value was “antitumoral and antimetastatic activity”. Besides, in data set [3] (setting [9]), the No. of metastases is recorded as 9.8 ± 2.8 and the “Primary Tumor Weight” value was 6789 ± 349 mg. The LD50 at 336 h in data set [4] is 3160 mg/kg. The compound also registered a 50% lethal dose (LD50) at 336 h in data set [5] of 1950 mg/kg.

As to `CC(=O)CC(c1ccccc1)c1c(O)c2ccccc2oc1=O` (centres unmarked) [Warfarin, reference compound], the Thrombotest in data set [2] (doses not given) was 180. Besides, in data set [3] (doses not given), the No. of metastases was found to be 12.4 ± 0.9 and the “Primary Tumor Weight” value is 6274 ± 690 mg. Moreover, the “antimetastatic effect on Lewis lung carcinoma (in words)” value in data set [6] is “has an antimetastatic effect”. Moreover, the “anticoagulating activity in antitumor therapy (in words)” value in data set [7] (human, in vivo) is on record as “strong anticoagulating activity”. Further, the “survival time in patients with lung carcinoma (in words)” value in data set [7] (in association with chemotherapy and radiation) is on record as “prolongs survival time”.
